From patent US10253069B2, “Compositions and methods for regulating arterial tone” (University of Virginia Patent Foundation, priority 2012, dated 2019) come the findings set out here.

One test has as its target T1, eNOS and Hb α complex (Mus musculus, UniProt P70313).
T1 construct: from tissue; host or cells: isolated mouse thoracodorsal arteries
T1 sequence (P70313 2-1202 limits assumed): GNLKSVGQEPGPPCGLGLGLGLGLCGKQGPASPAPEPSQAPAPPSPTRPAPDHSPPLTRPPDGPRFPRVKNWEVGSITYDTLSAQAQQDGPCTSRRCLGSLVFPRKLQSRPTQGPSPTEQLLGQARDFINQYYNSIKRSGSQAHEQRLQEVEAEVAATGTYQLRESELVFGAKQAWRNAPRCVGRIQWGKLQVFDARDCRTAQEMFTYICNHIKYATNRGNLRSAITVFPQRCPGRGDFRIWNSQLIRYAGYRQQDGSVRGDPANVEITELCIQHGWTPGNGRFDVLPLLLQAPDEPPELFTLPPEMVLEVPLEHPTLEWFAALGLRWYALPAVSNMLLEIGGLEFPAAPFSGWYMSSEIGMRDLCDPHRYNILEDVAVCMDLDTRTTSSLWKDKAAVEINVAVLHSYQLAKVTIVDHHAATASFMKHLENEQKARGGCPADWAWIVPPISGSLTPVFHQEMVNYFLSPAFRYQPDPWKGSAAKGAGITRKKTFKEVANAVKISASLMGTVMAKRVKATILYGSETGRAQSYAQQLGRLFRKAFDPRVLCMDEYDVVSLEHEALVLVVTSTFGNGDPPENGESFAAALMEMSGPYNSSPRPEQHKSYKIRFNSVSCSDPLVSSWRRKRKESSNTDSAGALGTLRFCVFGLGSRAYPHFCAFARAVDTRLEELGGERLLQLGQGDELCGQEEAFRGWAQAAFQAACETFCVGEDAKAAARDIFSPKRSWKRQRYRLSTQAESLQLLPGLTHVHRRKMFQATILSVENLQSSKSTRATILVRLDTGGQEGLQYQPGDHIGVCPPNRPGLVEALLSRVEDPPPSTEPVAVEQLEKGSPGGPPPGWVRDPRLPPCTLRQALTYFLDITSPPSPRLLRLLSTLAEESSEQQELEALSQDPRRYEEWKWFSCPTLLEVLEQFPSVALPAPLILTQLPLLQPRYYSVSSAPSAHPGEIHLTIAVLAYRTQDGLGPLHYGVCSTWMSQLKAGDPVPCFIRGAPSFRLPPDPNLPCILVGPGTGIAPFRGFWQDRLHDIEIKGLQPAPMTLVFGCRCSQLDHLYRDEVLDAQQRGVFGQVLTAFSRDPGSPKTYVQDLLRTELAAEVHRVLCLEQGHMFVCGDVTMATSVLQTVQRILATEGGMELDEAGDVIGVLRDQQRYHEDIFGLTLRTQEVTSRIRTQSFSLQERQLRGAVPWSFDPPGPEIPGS
The experiment in a line: Proximity ligation assay for eNOS and Hb α on thoracodorsal arteries. As for the experimental part:
Isolated thoracodorsal arteries were perfused with Scr X or Hb α X peptide (5 μmol/L) for 20 minutes and immediately immersed in 4% paraformaldehyde, paraffin-embedded and sectioned as previously described^12. Next, sections were de-paraffinized, blocked and incubated with 1:500 mouse anti-eNOS (BD Biosciences), 1:500 rabbit anti-Hb α and 1:500 mouse anti-caveolin-1 (BD Biosciences) primary antibodies overnight at 4° C. The following day, secondary antibodies conjugated with oligonucleotide PLA probes were added, ligated and rolling circle amplification with fluorescent oligonucleotides identified positive interaction sites as previously described^9. All images were visualized and captured using an Olympus Fluoview 1000 confocal microscope. For proximity ligation assay quantitation, positive interactions indicated by red punctates on the endothelium were counted and divided by the circumference of the lumen using Metamorph software.

Test [1] has as its system eNOS phosphorylation on serine 1177. The experiment in a line: Western blot of pS1177 eNOS in coronary endothelial cells. The class given is cell-based, human. Conditions: 5 μmol/L peptide, 20 minutes. As for the experimental part: Primary coronary endothelial cells (Lonza) were cultured on plastic 6-well dishes as previously described^9. For studies involving basal NO release, endothelial cells were incubated with 5 μmol/L of Scr X or Hb α X for 20 minutes followed by medium collection and nitrite measurements as described below. For bradykinin studies, coronary endothelial cells were grown to confluence followed by serum starvation overnight in a cocktail of Lonza EGM-2 medium supplemented with EGM-2 bullet kit and Opti MEM reduced growth medium using a ratio of 1:9 respectively. The next day, endothelial cells were incubated with Scr X or Hb α X peptide for 20 minutes followed by the addition of 10 μM bradykinin (Sigma) for 5 minutes followed by medium collection for nitrite measurements as described below.
Endothelial cells were harvested in lysis buffer, sonicated and subjected to electrophoresis using 10% Bis-Tris gels (Invitrogen) as previously described^13. Proteins were transferred to nitrocellulose, incubated with phospho-eNOS S1177 (BD Biosciences) or total eNOS (Sigma) and visualized and quantitated using Li-Cor Odyssey Imager as previously described^14.
On the technique in general: In western blotting, separated proteins are transferred to a membrane and probed.

A short description of test [2]: Blood pressure by radio telemetry, C57BL/6 mice. The conditions noted are these: single bolus 0.125 mg/kg intraperitoneal. The class given is in vivo, mouse. As for the experimental part: Blood pressure was measured in conscious wildtype or eNOS^−/− mice under unrestrained conditions using implanted radio telemetry units. Continuous blood pressure measurements were recorded using Dataquest A.R.T. 20 software (DSI). To do so, mice were anesthetized with isoflurane and the catheters (TA11PA-C10, Data Sciences International (DSI)) were implanted in the left carotid artery. The catheter was tunneled through to the radiotransmitter, which was placed in a subcutaneous pouch along the flank. Mice were allowed to recover for seven days after surgery to regain normal circadian rhythms before arterial pressure measurements and experiments were initiated. Thirty minutes prior to peptide injection, continuous blood pressure readings were recorded. Then, a bolus injection of Scr X or Hb α X peptide, or saline was administered via an intraperitoneal injection at 0.125 mg/kg. One hour post-injection, blood pressure was recorded for a 30 minute duration. The change in blood pressure was calculated by subtracting the average pre injection blood pressure from the average post-injection blood pressure.

“Peptide LSFPTTKTYF (SEQ ID NO:2), first ten amino acids of the Hb α sequence, with HIV-tat tag YGRKKRRQRRR at the N-terminus [Hb α X]” yielded an Inhibition of association on eNOS and Hb α complex (ex vivo studies) greater than 90%. Besides, at eNOS and Hb α complex (thoracodorsal arteries, 5 μmol/L peptide, 20 minutes), the “Colocalization / protein-protein interaction between eNOS and Hb α” value is on record as “significant loss of protein-protein interaction”. Moreover, the “Basal eNOS phosphorylation on serine 1177” value in test [1] is given as “no differences”. In addition, the “Systolic, diastolic and mean arterial blood pressure” value in test [2] was “significant decrease”.
